Experimental data as given in patent US8680159B2, “Bradykinin 1 receptor modulating compounds” (Gruenenthal GmbH, priority 2010, dated 2014).

molecular target: T1, B1R receptor of the rat (CHO K1 cells stably transfected with the B1R gene of the rat) (Rattus norvegicus, UniProt P97583); assay: Functional study on the bradykinin receptor 1 (B1R), Ca2+ fluorescence (Fluo-4) FLIPR/Novostar assay, rB1R cells; assay type: cell-based; settings: CHO-K1, 10 μM, read-out: % Inhibition (r-B1R) at 10 μM
T1 construct: expressed in transfected cells; host or cells: CHO K1 cells (Chinese hamster ovary), stably transfected
T1 sequence (P97583 1-337): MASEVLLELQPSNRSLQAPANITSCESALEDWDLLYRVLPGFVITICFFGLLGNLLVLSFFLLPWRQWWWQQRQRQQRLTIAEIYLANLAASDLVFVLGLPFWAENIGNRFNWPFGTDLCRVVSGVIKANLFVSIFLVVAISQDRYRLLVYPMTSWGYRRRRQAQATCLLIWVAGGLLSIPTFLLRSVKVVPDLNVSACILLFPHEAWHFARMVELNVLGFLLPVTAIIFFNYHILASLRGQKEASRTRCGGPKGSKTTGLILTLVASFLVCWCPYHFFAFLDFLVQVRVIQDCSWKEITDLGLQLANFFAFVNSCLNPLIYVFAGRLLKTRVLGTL
How it was run: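 Stably transfected CHO K1 cells carrying human or rat B1R were Fluo-4 loaded and Ca2+ fluorescence read by FLIPR or Novostar. Compounds were added first at 10 μM for % activation, then the EC80 agonist was applied after 6-20 min (human: Lys-Des-Arg9-bradykinin; rat: Des-Arg9-bradykinin). % inhibition is relative to maximum achievable inhibition, and IC50 comes from concentration series.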

inhibition at 10 µM | SMILES
84% | Cc1cc(N2CCC(N(C)C(=O)c3ccc4c(c3)C(NS(=O)(=O)Cc3cccc(C(F)(F)F)c3)CC4)CC2)cc(C)n1 (stereo not drawn) [CC_H-322, N-[1-(2,6-Dimethyl-pyridin-4-yl)-piperidin-4-yl]-N-methyl-3-[[[3-(trifluoromethyl)phenyl]-methylsulfonyl]amino]-2,3-dihydro-1H-indene-5-carboxylic acid amide]
110% | Cc1cc(N2CCC(N(C)C(=O)c3ccc4c(c3)C(NS(=O)(=O)Cc3ccccc3F)CC4)CC2)cc(C)n1 (stereo not drawn) [CC_H-323, N-[1-(2,6-Dimethyl-pyridin-4-yl)-piperidin-4-yl]-3-[[(2-fluorophenyl)-methylsulfonyl]amino]-N-methyl-2,3-dihydro-1H-indene-5-carboxylic acid amide]
108% | Cc1cc(N2CCC(N(C)C(=O)c3ccc4c(c3)C(NS(=O)(=O)CCc3ccccc3Cl)CC4)CC2)cc(C)n1 (stereo not drawn) [CC_H-324, 3-[[2-(2-Chlorophenyl)-ethylsulfonyl]amino]-N-[1-(2,6-dimethyl-pyridin-4-yl)-piperidin-4-yl]-N-methyl-2,3-dihydro-1H-indene-5-carboxylic acid amide]
112% | Cc1cc(N2CCC(N(C)C(=O)c3ccc4c(c3)C(N(C)C(=O)c3cc(F)ccc3Cl)CC4)CC2)cc(C)n1 (stereo not drawn) [CC_H-325, 3-[(2-Chloro-5-fluoro-benzoyl)-methyl-amino]-N-[1-(2,6-dimethyl-pyridin-4-yl)-piperidin-4-yl]-N-methyl-2,3-dihydro-1H-indene-5-carboxylic acid amide]
112% | Cc1cc(N2CCC(N(C)C(=O)c3ccc4c(c3)C(N(C)C(=O)c3cc(C(F)(F)F)ccc3Cl)CC4)CC2)cc(C)n1 (stereo not drawn) [CC_H-326, 3-[[2-Chloro-5-(trifluoromethyl)-benzoyl]-methyl-amino]-N-[1-(2,6-dimethyl-pyridin-4-yl)-piperidin-4-yl]-N-methyl-2,3-dihydro-1H-indene-5-carboxylic acid amide]
112% | Cc1cc(N2CCC(N(C)C(=O)c3ccc4c(c3)C(N(C)C(=O)c3c(F)ccc(C)c3Cl)CC4)CC2)cc(C)n1 (stereo not drawn) [CC_H-327, 3-[(2-Chloro-6-fluoro-3-methyl-benzoyl)-methyl-amino]-N-[1-(2,6-dimethyl-pyridin-4-yl)-piperidin-4-yl]-N-methyl-2,3-dihydro-1H-indene-5-carboxylic acid amide]
111% | Cc1cc(N2CCC(N(C)C(=O)c3ccc4c(c3)C(N(C)C(=O)c3cc(Cl)ccc3Cl)CC4)CC2)cc(C)n1 (stereo not drawn) [CC_H-328, 3-[(2,5-Dichloro-benzoyl)-methyl-amino]-N-[1-(2,6-dimethyl-pyridin-4-yl)-piperidin-4-yl]-N-methyl-2,3-dihydro-1H-indene-5-carboxylic acid amide]
111% | Cc1cc(N2CCC(N(C)C(=O)c3ccc4c(c3)C(N(C)C(=O)c3c(Cl)cccc3C(F)(F)F)CC4)CC2)cc(C)n1 (stereo not drawn) [CC_H-329, 3-[[2-Chloro-6-(trifluoromethyl)-benzoyl]-methyl-amino]-N-[1-(2,6-dimethyl-pyridin-4-yl)-piperidin-4-yl]-N-methyl-2,3-dihydro-1H-indene-5-carboxylic acid amide]
111% | Cc1cc(N2CCC(N(C)C(=O)c3ccc4c(c3)C(N(C)C(=O)C3CCCCC3)CC4)CC2)cc(C)n1 (stereo not drawn) [CC_H-330, 3-(Cyclohexanecarbonyl-methyl-amino)-N-[1-(2,6-dimethyl-pyridin-4-yl)-piperidin-4-yl]-N-methyl-2,3-dihydro-1H-indene-5-carboxylic acid amide]
104% | Cc1cc(N2CCC(N(C)C(=O)c3ccc4c(c3)C(N(C)C(=O)C3CC3)CC4)CC2)cc(C)n1 (stereo not drawn) [CC_H-331, 3-(Cyclopropanecarbonyl-methyl-amino)-N-[1-(2,6-dimethyl-pyridin-4-yl)-piperidin-4-yl]-N-methyl-2,3-dihydro-1H-indene-5-carboxylic acid amide]
111% | Cc1cc(N2CCC(N(C)C(=O)c3ccc4c(c3)C(N(C)C(=O)CC(C)(C)C)CC4)CC2)cc(C)n1 (stereo not drawn) [CC_H-332, 3-(3,3-Dimethyl-butanoyl-methyl-amino)-N-[1-(2,6-dimethyl-pyridin-4-yl)-piperidin-4-yl]-N-methyl-2,3-dihydro-1H-indene-5-carboxylic acid amide]
84% | COCC(=O)N(C)C1CCc2ccc(C(=O)N(C)C3CCN(c4cc(C)nc(C)c4)CC3)cc21 (stereo not drawn) [CC_H-333, N-[1-(2,6-Dimethyl-pyridin-4-yl)-piperidin-4-yl]-3-[(2-methoxy-acetyl)-methyl-amino]-N-methyl-2,3-dihydro-1H-indene-5-carboxylic acid amide]
110% | Cc1cc(N2CCC(N(C)C(=O)c3ccc4c(c3)C(N(C)S(=O)(=O)c3c(C)cccc3Cl)CC4)CC2)cc(C)n1 (stereo not drawn) [CC_H-335, 3-[[(2-Chloro-6-methyl-phenyl)sulfonyl]-methyl-amino]-N-[1-(2,6-dimethyl-pyridin-4-yl)-piperidin-4-yl]-N-methyl-2,3-dihydro-1H-indene-5-carboxylic acid amide]
97% | Cc1cc(N2CCC(N(C)C(=O)c3ccc4c(c3)C(N(C)C(=O)Nc3ccccc3Cl)CC4)CC2)cc(C)n1 (stereo not drawn) [CC_H-336, 3-[[(2-Chlorophenyl)-carbamoyl]-methyl-amino]-N-[1-(2,6-dimethyl-pyridin-4-yl)-piperidin-4-yl]-N-methyl-2,3-dihydro-1H-indene-5-carboxylic acid amide]
110% | Cc1cc(N2CCC(N(C)C(=O)c3ccc4c(c3)C(N(C)C(=O)Nc3cccc(Cl)c3)CC4)CC2)cc(C)n1 (stereo not drawn) [CC_H-337, 3-[[(3-Chlorophenyl)-carbamoyl]-methyl-amino]-N-[1-(2,6-dimethyl-pyridin-4-yl)-piperidin-4-yl]-N-methyl-2,3-dihydro-1H-indene-5-carboxylic acid amide]
92% | Cc1cc(N2CCC(N(C)C(=O)c3ccc4c(c3)C(N(C)C(=O)Nc3cccc(Cl)c3Cl)CC4)CC2)cc(C)n1 (stereo not drawn) [CC_H-339, 3-[[(2,3-Dichloro-phenyl)-carbamoyl]-methyl-amino]-N-[1-(2,6-dimethyl-pyridin-4-yl)-piperidin-4-yl]-N-methyl-2,3-dihydro-1H-indene-5-carboxylic acid amide]
95% | Cc1cc(N2CCC(N(C)C(=O)c3ccc4c(c3)C(N(C)C(=O)Nc3cc(Cl)cc(Cl)c3)CC4)CC2)cc(C)n1 (stereo not drawn) [CC_H-341, 3-[[(3,5-Dichloro-phenyl)-carbamoyl]-methyl-amino]-N-[1-(2,6-dimethyl-pyridin-4-yl)-piperidin-4-yl]-N-methyl-2,3-dihydro-1H-indene-5-carboxylic acid amide]
107% | Cc1cc(N2CCC(N(C)C(=O)c3ccc4c(c3)C(N(C)C(=O)Nc3ccc(Cl)cc3Cl)CC4)CC2)cc(C)n1 (stereo not drawn) [CC_H-342, 3-[[(2,4-Dichlorophenyl)-carbamoyl]-methyl-amino]-N-[1-(2,6-dimethyl-pyridin-4-yl)-piperidin-4-yl]-N-methyl-2,3-dihydro-1H-indene-5-carboxylic acid amide]
67% | Cc1cc(N2CCC(N(C)C(=O)c3ccc4c(c3)C(N(C)C(=O)Nc3cc(C(F)(F)F)ccc3Cl)CC4)CC2)cc(C)n1 (stereo not drawn) [CC_H-343, 3-[[[2-Chloro-5-(trifluoromethyl)-phenyl]-carbamoyl]-methyl-amino]-N-[1-(2,6-dimethyl-pyridin-4-yl)-piperidin-4-yl]-N-methyl-2,3-dihydro-1H-indene-5-carboxylic acid amide]
90% | Cc1cc(N2CCC(N(C)C(=O)c3ccc4c(c3)C(N(C)C(=O)Nc3ccc(Cl)cc3C(F)(F)F)CC4)CC2)cc(C)n1 (stereo not drawn) [CC_H-344, 3-[[[4-Chloro-2-(trifluoromethyl)-phenyl]-carbamoyl]-methyl-amino]-N-[1-(2,6-dimethyl-pyridin-4-yl)-piperidin-4-yl]-N-methyl-2,3-dihydro-1H-indene-5-carboxylic acid amide]
70% | Cc1cc(N2CCC(N(C)C(=O)c3ccc4c(c3)C(N(C)C(=O)Nc3ccc(F)c(Cl)c3)CC4)CC2)cc(C)n1 (stereo not drawn) [CC_H-346, 3-[[(3-Chloro-4-fluoro-phenyl)-carbamoyl]-methyl-amino]-N-[1-(2,6-dimethyl-pyridin-4-yl)-piperidin-4-yl]-N-methyl-2,3-dihydro-1H-indene-5-carboxylic acid amide]
57% | Cc1ccc(NC(=O)N(C)C2CCc3ccc(C(=O)N(C)C4CCN(c5cc(C)nc(C)c5)CC4)cc32)c(C)c1 (stereo not drawn) [CC_H-347, 3-[[(2,4-Dimethyl-phenyl)-carbamoyl]-methyl-amino]-N-[1-(2,6-dimethyl-pyridin-4-yl)-piperidin-4-yl]-N-methyl-2,3-dihydro-1H-indene-5-carboxylic acid amide]
80% | Cc1cc(N2CCC(N(C)C(=O)c3ccc4c(c3)C(N(C)C(=O)N(C)c3ccccc3Cl)CC4)CC2)cc(C)n1 (stereo not drawn) [CC_H-349, 3-[[(2-Chlorophenyl)-methyl-carbamoyl]-methyl-amino]-N-[1-(2,6-dimethyl-pyridin-4-yl)-piperidin-4-yl]-N-methyl-2,3-dihydro-1H-indene-5-carboxylic acid amide]
108% | Cc1cc(N2CCC(N(C)C(=O)c3ccc4c(c3)C(N(C)C(=O)N(C)c3ccc(Cl)cc3Cl)CC4)CC2)cc(C)n1 (stereo not drawn) [CC_H-350, 3[[(2,4-Dichlorophenyl)-methyl-carbamoyl]-methyl-amino]-N-[1-(2,6-dimethyl-pyridin-4-yl)-piperidin-4-yl]-N-methyl-2,3-dihydro-1H-indene-5-carboxylic acid amide]
